Assay results as given in paper PMC6268061, “Investigation of the Biological Properties of (Hetero)Aromatic Thiosemicarbazones” (Molecules, 2012).
Where two headings read alike, the source gives them in different places.

Tests used:
Candida krusei ATCC 6258 = assay: In vitro antifungal susceptibility, broth microdilution; type: cell-based; details: Pichia kudriavzevii, read-out: MIC (IC80) CK
Candida tropicalis 156 = assay: as above; type: cell-based; details: read-out: MIC (IC80) CT
[1] = tested on: HCT-116 human colon cancer cells (p53 wild type); set-up: method as in PMID 22858101; details: footnote 3: anticancer activity described elsewhere ref [34],[44]; cited from earlier work
[2] = tested on: Aspergillus fumigatus 231; assay: In vitro antifungal susceptibility, broth microdilution; type: cell-based; details: read-out: MIC (IC50) AF
[3] = tested on: Trichosporon beigelii 1188; assay: as above; type: cell-based; details: read-out: MIC (IC80) TB
Description: The broth microdilution test was used for the assessment of the in vitro antifungal activity of the synthesized compounds against Candida albicans ATCC 44859 (CA), Candida tropicalis 156 (CT), Candida krusei ATCC 6258 (CK), Candida glabrata 20/I (CG), Trichosporon beigelii 1188 (TB), Aspergillus fumigatus 231 (AF), Absidia corymbifera 272 (AC), and Trichophyton mentagrophytes 445 (TM). Fluconazole (FLU) was used as the standard since it is a clinically used antimycotic drug. The procedure was performed using a twofold dilution of the compounds in RPMI 1640 (Sevapharma a.s., Prague, Czech Republic) buffered to pH 7.0 with […] of 3-morpholino-propane-1-sulfonic acid (MOPS, Sigma, Prague, Czech Republic). The final concentrations of the compounds ranged from 500 to 0.975 μmol/L. Drug-free controls were included. The determination of minimum inhibitory concentration (MIC) was performed according to the Clinical and Laboratory Standards Institute (CLSI, formerly NCCLS) reference protocol M27-A2 for yeasts (IC80 value) and M38-A for moulds (IC50 value). IC80 and IC50 were defined as an 80% resp. 50% or greater reduction in growth in comparison with the control. The values of MICs were determined after 24 and 48 h of static incubation at 35 °C. The final MICs for T. mentagrophytes, were determined after 72 and 120 h of incubation.

Candida glabrata 20/I = assay: as above; type: cell-based; details: Nakaseomyces glabratus, read-out: MIC (IC80) CG
[4] = tested on: Candida albicans ATCC 44859; assay: as above; type: cell-based; details: read-out: MIC (IC80) CA
[5] = Lipophilicity determination using RP-HPLC (capacity factor, log k); type: physicochemical; details: C18, MeOH 55%/H2O 45%
Description: Reversed phase high performance liquid chromatography (RP-HPLC) methods have become popular and are widely used for lipophilicity measurements. The general procedure is the measurement of the directly accessible retention time under isocratic conditions using varying amounts of methanol as an organic modifier in the mobile phase using RP columns and calculating the logarithm of the capacity factors (log k). Log k is the logarithm of the capacity factors in chromatographic approaches that is related to the partitioning of a compound between a mobile and a (pseudo-)stationary phase. Log k is used as the lipophilicity index converted to log P scale.
A Waters Alliance 2695 XE HPLC separation module and a Waters Photodiode Array Detector 2996 (Waters Corp., Milford, MA, USA) were used. A Symmetry® C18 5 μm, 4.6 × 250 mm, Part No. WAT054275 (Waters Corp.) chromatographic column was used. The HPLC separation process was monitored using Empower™ 2 Chromatography Data Software, Waters 2009 (Waters Corp.). A mixture of MeOH p.a. (55%) and H2O-HPLC-Mili-Q Grade (45%) was used as a mobile phase. The total flow of the column was 0.9 mL/min, injection volume 30 μL, column temperature 30 °C and sample temperature 10 °C. A detection wavelength of 210 nm was chosen. A KI methanolic solution was used for the determination of dead time (tD). Retention times (tR) were measured in minutes. The capacity factors k were calculated using the Empower™ 2 Chromatography Data Software according to the formula k = (tR − tD)/tD, where tR is the retention time of the solute, whereas tD denotes the dead time obtained using an unretained analyte. Log k, calculated from the capacity factor k, is used as the lipophilicity index converted to log P scale.

Absidia corymbifera 272 = assay: In vitro antifungal susceptibility, broth microdilution; type: cell-based; details: read-out: MIC (IC50) AC
[6] = tested on: Trichophyton mentagrophytes 445; assay: as above; type: cell-based; details: read-out: MIC (IC50) TM
[7] = tested on: HCT-116 human colon cancer cells (p53 wild type); assay: In vitro antiproliferative activity, MTS assay; type: cell-based; details: HCT-116, 72 h incubation, MTS, read-out: HCT-116 IC50
Procedure: The antiproliferative activity of all of the compounds was examined against the human colon cancer (HCT-116) cell line using an MTS assay. The HCT-116 p53 wild type cell line was chosen on the basis of our former experience and some results on the activity of quinoline-based thiosemicarbazones that was published recently. Namely, compounds 4a–l have been tested previously for their wide-ranging anticancer activity. The antiproliferative activity of the compounds evaluated was assessed using Doxorubicin as a reference compound. In general, quinoline-based thiosemicarbazones 4 seem to have a much better anticancer activity than halogenophenyl compounds 3. Thus, the quinoline nucleus can be defined as being crucial for antiproliferative activity. A more detailed analysis of the anticancer activity of quinoline-based thiosemicarbazone is available. […] Nevertheless, some more general conclusions can be drawn from the gathered data. […] The free amino group or substitution pattern with small substituents such as methyl or ethyl are favorable for activity. According to our former results the chelating ability of the compounds may be one of the prerequisites of the antiproliferative activity. In this study we have measured the UV-VIS spectra of the compounds in presence of various concentration of Fe^3+ cations to observe its chelating potency (supplementary material). […] However as 4j give also two points at 330 and 385 nm, iron chelating ability should be regarded only as one of the factor influencing the biological activity.
The human colon cancer cell line HCT116 with the wild type p53 gene (p53^+/+) were obtained from Maria Sklodowska-Curie Memorial Cancer Center in Gliwice, Poland. Briefly, the cells were seeded in 96-well plates (3 × 10^3 cells/well) in cellular proliferation assays 24 h before the addition of the chelators. The assay was performed following a 72 h incubation with varying concentrations of the agents. Each compound was tested in triplicate in a single experiment with each experiment being repeated 3 times. After 72 h incubation with the compounds being investigated, 20 µL of MTS solution was added to each well (100 µL) and incubated for 1 h at 37 °C. The optical densities of the samples were analyzed at 490 nm. Results were expressed as a percentage of the control. The inhibitory concentration (IC50) was defined as the compound concentration necessary to reduce the absorbance to 50% of the untreated control.

[8] = tested on: photosynthetic electron transport (PET) in spinach chloroplasts; assay: Inhibition of photosynthetic electron transport (PET) in spinach chloroplasts; type: biochemical, Spinacia oleracea L.; details: DCPIP photoreduction
Procedure: Chloroplasts were prepared from spinach (Spinacia oleracea L.) according to Masarovicova and Kralova. The inhibition of the photosynthetic electron transport (PET) in spinach chloroplasts was determined spectrophotometrically (Genesys 6, Thermo Fisher Scientific, Waltham, MA, USA) using an artificial electron acceptor 2,6-dichlorophenol-indophenol (DCIPP) according to Kralova et al. and the rate of photosynthetic electron transport was monitored as a photoreduction of DCPIP. The measurements were carried out in a phosphate buffer (0.02 mol/L, pH 7.2) containing sucrose (0.4 mol/L), MgCl2 (0.005 mol/L) and NaCl (0.015 mol/L). The chlorophyll content was 30 mg/L in these experiments and the samples were irradiated (~100 W/m^2 with 10 cm distance) with a halogen lamp (250 W) using a 4 cm water filter to prevent warming of the samples (suspension temperature 22 °C). The compounds studied were dissolved in DMSO due to their limited water solubility. […] The inhibitory efficiency of the compounds studied was expressed by IC50 values, i.e., by the molar concentration of the compounds that caused a 50% decrease in the oxygen evolution rate relative to the untreated control.

[9] = ATCC6258, 24 h and 48 h, only one value presented (inactive)
[10] = Candida tropicalis, 156, 24 h and 48 h, only one value presented (inactive)
[11] = Aspergillus fumigatus, 231, 24 h and 48 h, only one value presented (inactive)
[12] = Trichosporon beigelii, 1188, 24 h and 48 h, only one value presented (inactive)
[13] = 24 h and 48 h, only one value presented (inactive)
[14] = ATCC44859, 24 h and 48 h, only one value presented (inactive)
[15] = Lichtheimia corymbifera, 272, 24 h and 48 h, only one value presented (inactive)
[16] = Trichophyton mentagrophytes, 445, 72 h and 120 h, only one value presented (inactive)
[17] = Aspergillus fumigatus, 231, 24 h
[18] = Aspergillus fumigatus, 231, 48 h
[19] = Trichosporon beigelii, 1188, 24 h
[20] = Trichosporon beigelii, 1188, 48 h
[21] = Lichtheimia corymbifera, 272, 24 h
[22] = Lichtheimia corymbifera, 272, 48 h
[23] = Trichophyton mentagrophytes, 445, 72 h
[24] = Trichophyton mentagrophytes, 445, 120 h

SMILES | MIC (Candida krusei ATCC 6258; [9]) [µM] | MIC (Candida tropicalis 156; [10]) [µM] | IC50 [1] [µM] | IC50 [2, 11] [µM] | MIC [3, 12] [µM] | MIC (Candida glabrata 20/I; [13]) [µM] | MIC [4, 14] [µM] | log k [5] | IC50 (Absidia corymbifera 272; [15]) [µM] | IC50 [6, 16] [µM] | IC50 [7] [µM] | IC50 [8] [µM] | other results
CCNC(=S)N/N=C/c1ccc(Br)cc1 [Compound 3n, (E)-2-(4-Bromobenzylidene)-N-ethylhydrazinecarbothioamide] | > 500 | > 500 | > 60 | > 500 | > 500 | > 500 | > 500 | 0.7568 | > 500 | > 500 | – | – | –
Oc1cccc2ccc(C=NNC(=S)Nc3ccccc3)nc12 [Compound 4h] | – | – | 25 ± 4.29 | – | – | – | – | 0.7548 | – | – | – | – | MIC (Candida krusei ATCC 6258; ATCC6258, 24 h): > 125 µM; MIC (Candida krusei ATCC 6258; ATCC6258, 48 h): > 125 µM; MIC (Candida tropicalis 156; Candida tropicalis, 156, 24 h): > 125 µM; MIC (Candida tropicalis 156; Candida tropicalis, 156, 48 h): > 125 µM; IC50 [2, 17]: > 125 µM; IC50 [2, 18]: > 125 µM; MIC [3, 19]: > 125 µM; MIC [3, 20]: > 125 µM; MIC (Candida glabrata 20/I; 24 h): > 125 µM; MIC (Candida glabrata 20/I; 48 h): > 125 µM; MIC ([4]; ATCC44859, 24 h): > 125 µM; MIC ([4]; ATCC44859, 48 h): > 125 µM; IC50 (Absidia corymbifera 272; [21]): > 125 µM; IC50 (Absidia corymbifera 272; [22]): > 125 µM; IC50 [6, 23]: > 125 µM; IC50 [6, 24]: > 125 µM
CNC(=S)NN=Cc1c(O)ccc2cccnc12 [Compound 4i] | – | – | > 25 | – | – | – | – | 0.6193 | – | – | – | – | MIC (Candida krusei ATCC 6258; ATCC6258, 24 h): > 500 µM; MIC (Candida krusei ATCC 6258; ATCC6258, 48 h): > 500 µM; MIC (Candida tropicalis 156; Candida tropicalis, 156, 24 h): > 500 µM; MIC (Candida tropicalis 156; Candida tropicalis, 156, 48 h): > 500 µM; IC50 [2, 17]: > 500 µM; IC50 [2, 18]: > 500 µM; MIC [3, 19]: > 500 µM; MIC [3, 20]: > 500 µM; MIC (Candida glabrata 20/I; 24 h): > 500 µM; MIC (Candida glabrata 20/I; 48 h): > 500 µM; MIC ([4]; ATCC44859, 24 h): > 500 µM; MIC ([4]; ATCC44859, 48 h): > 500 µM; IC50 (Absidia corymbifera 272; [21]): > 500 µM; IC50 (Absidia corymbifera 272; [22]): > 500 µM; IC50 [6, 23]: > 500 µM; IC50 [6, 24]: > 500 µM
CNC(=S)N/N=C/c1cccc(Cl)c1Cl [Compound 3b, (E)-2-(2,3-Dichlorobenzylidene)-N-methylhydrazinecarbothioamide] | > 500 | > 500 | – | > 500 | > 500 | > 500 | > 500 | 0.7357 | > 500 | > 500 | > 60 | 170 | –
NC(=S)N/N=C/c1ccc(Cl)c(Cl)c1 [Compound 3f, (E)-2-(3,4-Dichlorobenzylidene)hydrazinecarbothioamide] | > 500 | > 500 | – | > 500 | > 500 | > 500 | > 500 | 0.6974 | > 500 | > 500 | 46 ± 0.9 | 283 | –
CCNC(=S)N/N=C/c1ccc(Cl)c(Cl)c1 [Compound 3i, (E)-2-(3,4-Dichlorobenzylidene)-N-ethylhydrazinecarbothioamide] | > 500 | > 500 | – | > 500 | > 500 | > 500 | > 500 | 0.8415 | > 500 | > 500 | 48.5 ± 2.8 | 280 | –
S=C(N/N=C/c1ccc(Cl)c(Cl)c1)Nc1ccccc1 [Compound 3j, (E)-2-(3,4-Dichlorobenzylidene)-N-phenylhydrazinecarbothioamide] | > 125 | > 125 | – | > 125 | > 125 | > 125 | > 125 | 0.9774 | > 125 | > 125 | > 60 | 426 | –
